Like-named read-outs stand apart in the source and are kept apart here.
Key:
PhoA5 pPAT7 = type: cell-based, Pseudomonas putida; conditions: for tolerance to amino acid / tolerance to paraben: PhoA5 pPAT7; for tolerance to amino acid: gradient 0 to 50 g/L; for tolerance to aromatic carboxylic acids: PhoA5(pPAT7), double diffusion plates; for tolerance to paraben: same gradients
P. putida PhoA5 = type: cell-based, Pseudomonas putida; conditions: for tolerance to amino acid: gradient 0 to 50 g/L; for concentration that the strain tolerated: aromatic carboxylic acid gradient, 20 h at 30° C.; for tolerance to paraben: same gradients
[1] = system: Pseudomonas putida DOT-T1E (wild-type); type: cell-based; conditions: for tolerance to amino acid / tolerance to paraben: T1E; for tolerance to amino acid: gradient 0 to 50 g/L; for concentration that the strain tolerated: Wild-type, aromatic carboxylic acid gradient, 20 h at 30° C.; for tolerance to paraben: gradient up to 2, 1.54, 0.8, 0.3 g/L for methyl-, ethyl-, propyl-, butylparaben
T1E pPAT7 = type: cell-based, Pseudomonas putida; conditions: for tolerance to amino acid: gradient 0 to 50 g/L; for tolerance to paraben: same gradients
[2] = system: Pseudomonas putida DOT-T1E; experiment: Halo-inhibition test with antibiotic disks on minimal medium; type: cell-based; conditions: for tolerance/sensitivity to antibiotic: wild-type, Halo-inhibition test; for size of the inhibition halo: strain T1E, 6-mm disks, µg per disk as, minimal medium
[3] = octanol-water; cited from earlier work
PhoA5 mutant = conditions: 3 μg/mL EDDHA, M9 with glucose; overcome by adding Fe-citrate
[4] = system: wild-type strain (DOT-T1E); conditions: 3 μg/mL EDDHA, M9 with glucose
adapted strain = conditions: after 11 transfers; slow rate

N[C@@H](Cc1c[nH]cn1)C(=O)O [Histidine, L-histidine]
tolerance to amino acid (PhoA5 pPAT7): 29.4 g/L
tolerance to amino acid (P. putida PhoA5): 22.3 g/L
tolerance to amino acid (P. putida PhoA5; listed as histidine): about 23 g/L
tolerance to amino acid [1]: 31.2 g/L
tolerance to amino acid ([1]; listed as histidine): ~31 g/L
tolerance to amino acid (T1E pPAT7): 30.6 g/L

Cc1ccc(C(=O)O)cc1 [p-methylbenzoate]
tolerance to aromatic carboxylic acids (PhoA5 pPAT7): as tolerant as the wild-type
concentration that the strain tolerated (P. putida PhoA5): 7.4 g/L
concentration that the strain tolerated [1]: 14.5 g/L

CN[C@H](CC(C)C)C(=O)N[C@H]1C(=O)N[C@@H](CC(N)=O)C(=O)N[C@H]2C(=O)N[C@H]3C(=O)N[C@H](C(=O)N[C@H](C(=O)O)c4cc(O)cc(O)c4-c4cc3ccc4O)[C@H](O)c3ccc(c(Cl)c3)Oc3cc2cc(c3O[C@@H]2O[C@H](CO)[C@@H](O)[C@H](O)[C@H]2O[C@H]2C[C@](C)(N)[C@H](O)[C@H](C)O2)Oc2ccc(cc2Cl)[C@H]1O [vancomycin]
tolerance/sensitivity to antibiotic [2]: tolerant

Nc1ccccc1C(=O)O [o-aminobenzoate]
tolerance to aromatic carboxylic acids (PhoA5 pPAT7): as tolerant as the wild-type
concentration that the strain tolerated (P. putida PhoA5): 5.0 g/L
concentration that the strain tolerated [1]: 8.7 g/L

CCCCCCC [heptane]
log Pow [3]: 4.5

CC[C@H]1OC(=O)[C@H](C)[C@@H](O[C@H]2C[C@@](C)(OC)[C@@H](O)[C@H](C)O2)[C@H](C)[C@@H](O[C@@H]2O[C@H](C)C[C@H](N(C)C)[C@H]2O)[C@](C)(O)C[C@@H](C)C(=O)[C@H](C)[C@@H](O)[C@]1(C)O [erythromycin]
tolerance/sensitivity to antibiotic [2]: tolerant

C1CCCCC1 [cyclohexane]
log Pow [3]: 3.2

CCN1CCN(C(=O)N[C@@H](C(=O)N[C@@H]2C(=O)N3[C@@H]2SC(C)(C)[C@@H]3C(=O)O)c2ccccc2)C(=O)C1=O [PIP, piperacillin]
size of the inhibition halo [2]: 18 mm
tolerance/sensitivity to antibiotic [2]: equally sensitive

O=C(O)c1cn(C2CC2)c2cc(N3CCNCC3)c(F)cc2c1=O [CIP, ciprofloxacine]
size of the inhibition halo [2]: 21 mm
tolerance/sensitivity to antibiotic [2]: sensitive

Nc1ccc(C(=O)O)cc1 [p-aminobenzoate]
tolerance to aromatic carboxylic acids (PhoA5 pPAT7): as tolerant as the wild-type
concentration that the strain tolerated (P. putida PhoA5): 7.8 g/L
concentration that the strain tolerated [1]: 13.0 g/L

N[C@@H](Cc1c[nH]c2ccccc12)C(=O)O [Tryptophan, L-tryptophan]
tolerance to amino acid (PhoA5 pPAT7): 22.9 g/L
tolerance to amino acid (PhoA5 pPAT7; listed as tryptophan): more sensitive than the wild-type
tolerance to amino acid (P. putida PhoA5): 23.5 g/L
tolerance to amino acid (P. putida PhoA5; listed as tryptophan): about 23 g/L
tolerance to amino acid [1]: 35.3 g/L
tolerance to amino acid ([1]; listed as tryptophan): ~35 g/L
tolerance to amino acid (T1E pPAT7): 38.8 g/L

O=C(O)c1cccc(Cl)c1 [m-chlorobenzoate]
tolerance to aromatic carboxylic acids (PhoA5 pPAT7): as tolerant as the wild-type
concentration that the strain tolerated (P. putida PhoA5): 3.0 g/L
concentration that the strain tolerated [1]: 4.5 g/L

CCn1cc(C(=O)O)c(=O)c2ccc(C)nc21 [NA, nalidixic acid]
size of the inhibition halo [2]: 15 mm
tolerance/sensitivity to antibiotic [2]: equally sensitive

CCCCCCCCO [1-octanol]
log Pow [3]: 2.8

CO/N=C(\C(=O)N[C@@H]1C(=O)N2C(C(=O)O)=C(COC(C)=O)CS[C@H]12)c1csc(N)n1 [CTX, cefotaxime]
size of the inhibition halo [2]: 14 mm
tolerance/sensitivity to antibiotic [2]: sensitive

COC(=O)c1ccc(O)cc1 [MB, methylparabene]
tolerance to paraben (PhoA5 pPAT7): >2.0 g/L
tolerance to paraben (PhoA5 pPAT7; listed as methylparaben): as tolerant as the wild-type strain
tolerance to paraben (P. putida PhoA5): 1.0 g/L
tolerance to paraben (P. putida PhoA5; listed as methylparaben): about 1 g/L
tolerance to paraben [1]: >2 g/L
tolerance to paraben (T1E pPAT7): >2 g/L

O=C(O)c1ccccc1Cl [o-chlorobenzoate]
tolerance to aromatic carboxylic acids (PhoA5 pPAT7): as tolerant as the wild-type
concentration that the strain tolerated (P. putida PhoA5): 6.0 g/L
concentration that the strain tolerated [1]: 14.5 g/L

p-methoxybenzoate
tolerance to aromatic carboxylic acids (PhoA5 pPAT7): as tolerant as the wild-type
concentration that the strain tolerated (P. putida PhoA5): 9.1 g/L
concentration that the strain tolerated [1]: 19 g/L

C[C@@H](O)[C@H]1C(=O)N2C(C(=O)O)=C(SCCN=CN)C[C@H]12 [IPM, imipenen]
size of the inhibition halo [2]: 26 mm
tolerance/sensitivity to antibiotic [2]: sensitive

O=C(O)C(NCCNC(C(=O)O)c1ccccc1O)c1ccccc1O (centres unmarked) [EDDHA, ethylenediamine-di (o-hydroxyphenylacetic acid)]
growth in the presence of iron chelator (PhoA5 mutant): severely inhibited
growth in the presence of iron chelator [4]: grew under all culture conditions

COc1ccccc1C(=O)O [o-methoxybenzoate]
tolerance to aromatic carboxylic acids (PhoA5 pPAT7): as tolerant as the wild-type
concentration that the strain tolerated (P. putida PhoA5): 8.5 g/L
concentration that the strain tolerated [1]: 17 g/L

CCCCOC(=O)c1ccc(O)cc1 [BP, butylparabene]
tolerance to paraben (PhoA5 pPAT7): >0.3 g/L
tolerance to paraben (P. putida PhoA5): >0.3 g/L
tolerance to paraben (P. putida PhoA5; listed as butylparaben): ≥ 0.3 g/L
tolerance to paraben [1]: >0.3 g/L
tolerance to paraben (T1E pPAT7): >0.3 g/L

gentamycin [GM]
size of the inhibition halo [2]: 17 mm
tolerance/sensitivity to antibiotic [2]: equally sensitive

[H]/N=C(/N)N[C@H]1[C@H](O)[C@@H](O)[C@H](O[C@@H]2O[C@@H](C)[C@](O)(C=O)[C@H]2O[C@@H]2O[C@@H](CO)[C@H](O)[C@@H](O)[C@@H]2NC)[C@@H](N/C(N)=N\[H])[C@@H]1O [SM, streptomycin]
size of the inhibition halo [2]: 16 mm
tolerance/sensitivity to antibiotic [2]: equally sensitive

COc1cccc(C(=O)O)c1 [m-methoxybenzoate]
tolerance to aromatic carboxylic acids (PhoA5 pPAT7): as tolerant as the wild-type
concentration that the strain tolerated (P. putida PhoA5): 7.2 g/L
concentration that the strain tolerated [1]: 12 g/L

Cc1ccc(C)cc1 [p-xylene]
log Pow [3]: 3.0

CCCc1ccccc1 [propylbenzene]
log Pow [3]: 3.6

N[C@@H](Cc1ccc(O)cc1)C(=O)O [Tyrosine, L-tyrosine]
tolerance to amino acid (P. putida PhoA5): 25.3 g/L
tolerance to amino acid (P. putida PhoA5; listed as tyrosine): about 23 g/L
tolerance to amino acid [1]: about 40 g/L

CCCOC(=O)c1ccc(O)cc1 [PB, propylparabene]
tolerance to paraben (PhoA5 pPAT7): >0.8 g/L
tolerance to paraben (P. putida PhoA5): >0.8 g/L
tolerance to paraben (P. putida PhoA5; listed as propylparaben): at least 0.8 g/L
tolerance to paraben [1]: >0.8 g/L
tolerance to paraben (T1E pPAT7): >0.8 g/L

CC1(C)S[C@@H]2[C@H](NC(=O)[C@H](N)c3ccccc3)C(=O)N2[C@H]1C(=O)O [ampicillin]
tolerance/sensitivity to antibiotic [2]: tolerant

CCn1cc(C(=O)O)c(=O)c2cc(F)c(N3CCNCC3)cc21 [NOR, norfloxacine]
size of the inhibition halo [2]: 20 mm
tolerance/sensitivity to antibiotic [2]: sensitive

Nc1cccc(C(=O)O)c1 [m-aminobenzoate]
tolerance to aromatic carboxylic acids (PhoA5 pPAT7): as tolerant as the wild-type
concentration that the strain tolerated (P. putida PhoA5): 7.5 g/L
concentration that the strain tolerated [1]: 14.8 g/L

CCc1ccccc1 [ethylbenzene]
log Pow [3]: 3.1

CC(=O)O [acetate]
acetate concentration at which the adapted strain was able to grow (adapted strain): 200 mM

CN(C)[C@@H]1C(O)=C(C(N)=O)C(=O)[C@@]2(O)C(O)=C3C(=O)c4c(O)cccc4[C@@](C)(O)[C@H]3C[C@@H]12 [TE, tetracycline]
size of the inhibition halo [2]: 21 mm

CCOC(=O)c1ccc(O)cc1 [EB, ethylparabene]
tolerance to paraben (PhoA5 pPAT7): 1.54 g/L
tolerance to paraben (PhoA5 pPAT7; listed as ethylparaben): as tolerant as the wild-type strain
tolerance to paraben (P. putida PhoA5): ~1.4 g/L
tolerance to paraben [1]: >1.54 g/L

— patent US7348421B1, “Methods for production of p-hydroxybenzoate in bacteria” (North Carolina State University, priority 2000, dated 2008)
